In one series the test system is SN12C. Kind of series: NCI60 antiproliferative screen, renal SN12C. The format is cell-based, human. The settings on record: 48 h, sulforhodamine B, read-out: Cytotoxicity (GI50) renal SN12C. The method, then:
(§1) All of the indenoisoquinolines were tested for antiproliferative activity in the National Cancer Institute's 60 cell line screen (NCI60). The cells were incubated with the tested compounds at 100, 10, 1, 0.1, and 0.01 μM concentrations for 48 h before treatment with sulforhodamine B dye. Optical densities were recorded, and their ratios relative to that of the control were plotted as percentage growth against the log 10 of the tested compound concentrations. The concentration that corresponds to 50% growth inhibition (GI50) is calculated by interpolation between the points located above and below the 50% percentage growth. The mean-graph midpoint (MGM) is an estimated average of the GI50 values derived from the NCI collection of 60 human cancer cell lines, where during the MGM calculation, anticancer agents with GI50 values that are outside the testing range of 0.01-100 μM are arbitrarily assigned the values of 0.01 and 100 μM, respectively. […] Also, the GI50 values of many of the substances vs. individual human cancer cell lines are below the lowest concentration used (0.01 μM) in the standard NCI testing protocol. […] For example, the MGM cytotoxicity values of 9, 15-17, and 19 are all very close to each other, but the Top1 inhibitory activities range from +++(+) to 0.

A further series concerns UACC-62. Kind of series: NCI60 antiproliferative screen, melanoma UACC-62. The class given is cell-based, human. The note with it: UACC-62, 48 h, sulforhodamine B, read-out: Cytotoxicity (GI50) melanoma UACC-62. The method, then:
as §1

Series [1] concerns all human cancer cell lines successfully tested (NCI60). Kind of series: NCI60 mean graph midpoint for growth inhibition. The settings on record: for mean GI50 across NCI60 cell lines (MGM): all human cancer cell lines successfully tested, ± standard error, read-out: MGM (mean graph midpoint for growth inhibition). The class given is cell-based. How it is done:
as §1

A further series concerns DU-145. The experiment in a line: NCI60 antiproliferative screen, prostate DU-145. The class given is cell-based, human. The settings on record: DU-145, 48 h, sulforhodamine B, read-out: Cytotoxicity (GI50) prostate DU-145. The method, then: as §1
The next series has as its system SF-539. Kind of series: NCI60 antiproliferative screen, CNS SF-539. The class given is cell-based, human. The settings on record: SF-539, 48 h, sulforhodamine B, read-out: Cytotoxicity (GI50) CNS SF-539. The method, then: as §1
Another series relates to MCF-7. The experiment in a line: NCI60 antiproliferative screen, breast MCF-7. The class given is cell-based, human. The settings on record: MCF-7, 48 h, sulforhodamine B, read-out: Cytotoxicity (GI50) breast MCF-7. The method, then:
as §1

The next series deals with HCT-116. The experiment in a line: NCI60 antiproliferative screen, colon HCT-116. The format is cell-based, human. The settings on record: HCT-116, 48 h, sulforhodamine B, read-out: Cytotoxicity (GI50) Colon HCT-116. How it is done: as §1
The next series concerns OVCAR-3. Kind of series: NCI60 antiproliferative screen, ovarian OVCAR-3. The class given is cell-based, human. The settings on record: OVCAR-3, 48 h, sulforhodamine B, read-out: Cytotoxicity (GI50) Ovarian OVCAR-3. The method, then:
as §1

A further series concerns HOP-62. The experiment in a line: NCI60 antiproliferative screen, lung HOP-62. The format is cell-based, human. The settings on record: HOP-62, 48 h, sulforhodamine B, read-out: Cytotoxicity (GI50) lung HOP-62. The method, then:
as §1

The target in a further series is T1, Human recombinant Top1 (Homo sapiens, UniProt P11387).
T1 construct: made in house
T1 sequence (P11387 1-765): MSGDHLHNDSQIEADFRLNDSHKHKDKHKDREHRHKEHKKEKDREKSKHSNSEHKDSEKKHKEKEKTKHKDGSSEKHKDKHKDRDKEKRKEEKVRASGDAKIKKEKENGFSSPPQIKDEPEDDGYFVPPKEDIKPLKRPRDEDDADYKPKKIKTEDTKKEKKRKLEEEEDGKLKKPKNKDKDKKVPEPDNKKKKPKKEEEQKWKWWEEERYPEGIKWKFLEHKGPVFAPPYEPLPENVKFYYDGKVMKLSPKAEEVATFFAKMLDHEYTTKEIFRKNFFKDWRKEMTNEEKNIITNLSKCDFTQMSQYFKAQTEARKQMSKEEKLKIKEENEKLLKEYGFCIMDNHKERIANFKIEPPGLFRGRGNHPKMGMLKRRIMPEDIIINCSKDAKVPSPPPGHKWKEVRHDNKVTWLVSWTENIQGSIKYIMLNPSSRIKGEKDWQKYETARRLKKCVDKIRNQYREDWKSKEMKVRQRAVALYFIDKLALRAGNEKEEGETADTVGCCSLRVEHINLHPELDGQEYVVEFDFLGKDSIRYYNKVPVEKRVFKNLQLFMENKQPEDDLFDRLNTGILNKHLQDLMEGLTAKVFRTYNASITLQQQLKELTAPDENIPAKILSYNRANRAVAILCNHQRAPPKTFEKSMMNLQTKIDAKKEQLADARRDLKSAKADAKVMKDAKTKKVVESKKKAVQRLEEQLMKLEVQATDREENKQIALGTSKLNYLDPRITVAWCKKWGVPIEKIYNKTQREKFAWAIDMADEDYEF
The experiment in a line: Top1-mediated DNA cleavage assay. The format is biochemical. The settings on record: for Top 1 Cleavage: graded relative to 1 μM camptothecin. The arrangement: key to Top 1 Cleavage: 0, no inhibitory activity; +, between 20 and 50% activities; ++, between 50 and 75% activity; +++, between 75 and 95% activity; ++++, equipotent. The method, then: All of the new indenoisoquinoline derivatives were tested in Top1-mediated DNA cleavage assays. For this purpose, a ^32P 3′-end labeled 117-bp DNA fragment was incubated with Top1 at four concentrations of a tested compound. The DNA fragments were separated on 20% PAGE denaturing gels. The Top1 inhibitory activities were assigned on the basis of the visual inspection of the number and intensities of the gel bands corresponding to Top1-mediated DNA cleavage fragments and scored relative to the Top1 inhibitory activity of compounds 1 and 4. Results are expressed in semiquantitative fashion: 0, no detectable activity; +, weak activity; ++, similar activity to compound 4; +++, greater activity than 4; ++++, equipotent with 1. Ambiguous scores (e.g., between two values) are designated with parentheses (e.g., ++(+) would be between ++ and +++). […] After conversion of the hydroxyl to a dimethylcarbamate, the observed Top1 inhibitory activity increased from ++(+) for compound 8 to +++ for compound 10. Introduction of an acetyl group at the 0-2 position yielded compound 11, which was also a Top1 poison with activity at the ++ level. Subsequently, several hydrophobic substituents were attached to the 0-2 position.
Topoisomerase I-Mediated DNA Cleavage Reactions.
Human recombinant Top1 was purified from baculovirus as previously described (Morrell, A., et al., J. Med. Chem. 2007, 50, 2040-2048). DNA cleavage reactions were prepared as previously reported with the exception of the DNA substrate (Strumberg, D., et al., J. Med. Chem. 1999, 42, 446-457). Briefly, a 117-bp DNA oligonucleotide (Integrated DNA Technologies) encompassing the previously identified Top1 cleavage sites in the 161-bp fragment from pBluescript SK(−) phagemid DNA was employed. This 117-bp oligonucleotide contains a single 5′-cytosine overhang, which was 3′-end-labeled by fill-in reaction with [α-^32P]dGTP in React 2 buffer (50 mM Tris-HCl, pH 8.0, […], 50 mM NaCl) with 0.5 unit of DNA polymerase I (Klenow fragment, New England BioLabs). Unincorporated [^32P]dGTP was removed using mini Quick Spin DNA columns (Roche, Indianapolis, Ind.), and the eluate containing the 3′-end-labeled DNA substrate was collected. Approximately 2 nM radiolabeled DNA substrate was incubated with recombinant Top1 in 20 μL of reaction buffer [10 mM Tris-HCl (pH 7.5), 50 mM KCl, 5 mM MgCl2, 0.1 mM EDTA, and 15 μg/mL BSA] at 25° C. for 20 min in the presence of various concentrations of compounds. The reactions were terminated by adding SDS (0.5% final concentration) followed by the addition of two volumes of loading dye (80% formamide, 10 mM sodium hydroxide, 1 mM sodium EDTA, 0.1% xylene cyanol, and 0.1% bromophenol blue). Aliquots of each reaction mixture were subjected to 20% denaturing PAGE. Gels were dried and visualized by using a phosphoimager and ImageQuant software (Molecular Dynamics). For simplicity, cleavage sites were numbered as previously described in the 161-bp fragment.

Structures can show the parent of a compound that is named as a salt. Where two headings read alike, the source gives them in different places.

In general, GI50 refers to the concentration giving 50% growth inhibition. What is called melting point is the temperature of the solid-liquid transition. In turn, `COc1cc2c3c(n(CCCN4CCOCC4)c(=O)c2cc1OC(=O)N(C)C)-c1cc2c(cc1C3=O)OCO2` [Compound 15, 2-Methoxy-6-(3-morpholinopropyl)-5,12-dioxo-6,12-dihydro-5H-[1,3]dioxolo[4′,5′:5,6]indeno[1,2-c]isoquinolin-3-yl Dimethylcarbamate] came in with a melting point of 290 to 292 °C. In addition, the GI50 in the series on SN12C (Homo sapiens) worked out at 25 nM. The GI50 with UACC-62 (Homo sapiens) is 17 nM. In series [1], the mean GI50 across NCI60 cell lines (MGM) was found to be 70 ± 28 nM. Moreover, the GI50 in the series on DU-145 (Homo sapiens) is 32 nM. Moreover, in the series with SF-539 (Homo sapiens), the GI50 worked out at 21 nM. Further, the GI50 with MCF-7 (Homo sapiens, MCF7) was under 10 nM. Also, the GI50 in the series with HCT-116 (Homo sapiens) turned out to be 26 nM. For the same compound, the GI50 with OVCAR-3 (Homo sapiens) was determined as 105 nM. The 50% growth inhibitory concentration (GI50) with HOP-62 (Homo sapiens) stood at 32 nM.
With `COc1cc2c3c(n(CCCN4CCOCC4)c(=O)c2cc1OC(C)=O)-c1cc2c(cc1C3=O)OCO2` [Compound 16, 2-Methoxy-6-(3-morpholinopropyl)-5,12-dioxo-6,12-dihydro-5H-[1,3]dioxolo[4′,5′:5,6]indeno[1,2-c]isoquinolin-3-yl Acetate], the GI50 in the series with SN12C, with UACC-62, in the series on DU-145, with SF-539, in the series with MCF-7 and in the series with HCT-116 was under 10 nM throughout. Besides, the GI50 in the series on OVCAR-3 is 269 nM; with HOP-62, under 10 nM. Besides, the “Top 1 Cleavage” value on Human recombinant Top1 is 0. Also, in series [1], the mean GI50 across NCI60 cell lines (MGM) was found to be 95 ± 45 nM.
As to `COc1cc2c3c(n(CCCN4CCOCC4)c(=O)c2cc1OC(=O)c1ccccc1)-c1cc2c(cc1C3=O)OCO2` [Compound 18, 2-Methoxy-6-(3-morpholinopropyl)-5,12-dioxo-6,12-dihydro-5H-[1,3]dioxolo[4′,5′:5,6]indeno[1,2-c]isoquinolin-3-yl Benzoate], the GI50 amounted to 195 nM in the series with SN12C; 59 nM with UACC-62; 724 nM in the series with DU-145; 135 nM in the series on SF-539; 15 nM in the series with MCF-7; 5890 nM with HCT-116. In addition, the figures for the GI50 with OVCAR-3 and with HOP-62 were 30900 nM and 2140 nM, respectively. Besides, the “Top1 inhibitory activity (in words)” value at Human recombinant Top1 is “weak Top1 poisons”. Also, on Human recombinant Top1, the “Top 1 Cleavage” value is “+ (+, between 20 and 50% activities)”. The “GI50's against various cell lines (range in words)” value in series [1] (NCI60) is reported as “micromolar range”. The “cytotoxicity relative to parent compound (in words)” value in series [1] (NCI60) is “significantly less cytotoxic than their respective parent compounds”. Besides, the mean GI50 across NCI60 cell lines (MGM) in series [1] was 3190 ± 622 nM.
With `COc1cc2c3c(n(CCCN4CCOCC4)c(=O)c2cc1OS(=O)(=O)O)-c1cc2c(cc1C3=O)OCO2` [Compound 20, 2-Methoxy-6-(3-morpholinopropyl)-5,12-dioxo-6,12-dihydro-5H-[1,3]dioxolo[4′,5′:5,6]indeno[1,2-c]isoquinolin-3-yl Hydrogen Sulfate], the GI50 in the series with SN12C worked out at 355 nM; in the series with UACC-62, 263 nM; in the series with DU-145, 417 nM; with SF-539, 263 nM; with MCF-7 it was 209 nM; with HCT-116 it was 389 nM. For the same compound, the GI50 came out at 1120 nM in the series with OVCAR-3 and 389 nM with HOP-62. For the same compound, the “Top 1 Cleavage” value at Human recombinant Top1 was “++ (++, between 50 and 75% activity)”. Also, the mean GI50 across NCI60 cell lines (MGM) in [1] was 912 nM.

For the origin of these results see patent publication US20190218226A1, “PRODRUGS OF ANTICANCER AGENTS INDOTECAN AND INDIMITECAN” (Purdue Research Foundation, priority 2016, published 2019).
